Measured values: ChEMBL document CHEMBL1201862, “PubChem BioAssay data set” (2004)
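Interpolation was linear, between the two tested concentrations surrounding the appropriate level; five concentrations were tested over 48 hours in 96-well plates. GI50: concentration for 50% inhibition of growth.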 The source made the active and inactive calls. Cut-off read from the data, not from the text of the source: active = GI50 up to about 1.1 µM and inactive = higher.

Columns and labels:
Test in all cases: NCI anticancer screen, dose series, 48 h
DU-145 = test system: DU-145
TK-10 = test system: TK-10
A549 = test system: A549
HCT-116 = test system: HCT-116
SNB-19 = test system: SNB-19
SF-539 = test system: SF-539
T47D = test system: T47D
SNB-75 = test system: SNB-75
786-0 = test system: 786-0
Hs-578T = test system: Hs-578T
MDA-MB-435 = test system: MDA-MB-435
SK-OV-3 = test system: SK-OV-3
MDA-MB-231 = test system: MDA-MB-231
HOP-92 = test system: HOP-92
SK-MEL-28 = test system: SK-MEL-28
NCI/ADR-RES = test system: NCI/ADR-RES
OVCAR-3 = test system: OVCAR-3
SN12C = test system: SN12C
OVCAR-4 = test system: OVCAR-4
M14 = test system: M14

| Compound | GI50 (DU-145) | GI50 (TK-10) | GI50 (A549) | GI50 (HCT-116) | GI50 (SNB-19) | GI50 (SF-539) | GI50 (T47D) | GI50 (SNB-75) | GI50 (786-0) | GI50 (Hs-578T) | GI50 (MDA-MB-435) | GI50 (SK-OV-3) | GI50 (MDA-MB-231) | GI50 (HOP-92) | GI50 (SK-MEL-28) | GI50 (NCI/ADR-RES) | GI50 (OVCAR-3) | GI50 (SN12C) | GI50 (OVCAR-4) | GI50 (M14) |
| --- | --- | --- | --- | --- | --- | --- | --- | --- | --- | --- | --- | --- | --- | --- | --- | --- | --- | --- | --- | --- |
| c1ccc(CC(Nc2cccnc2)c2ccccc2)cc1 (stereo not given) | 29.6 µM (inactive) | 32.2 µM (inactive) | 25.6 µM (inactive) | 15.5 µM (inactive) | 30.8 µM (inactive) | 20.6 µM (inactive) | 28.1 µM (inactive) | 24.9 µM (inactive) | 21.3 µM (inactive) | 37.2 µM (inactive) | 22.9 µM (inactive) | 31.7 µM (inactive) | 20 µM (inactive) | 17.4 µM (inactive) | 31 µM (inactive) | 21.9 µM (inactive) | 16.4 µM (inactive) | 20.6 µM (inactive) | 25.7 µM (inactive) | 17.9 µM (inactive) |
| O=c1c(Cc2cccc(Cc3c(O)oc4ccccc4c3=O)c2)c(O)oc2ccccc12 | > 100 µM (inactive) | > 100 µM (inactive) | > 100 µM (inactive) | > 100 µM (inactive) | > 100 µM (inactive) | > 100 µM (inactive) | > 100 µM (inactive) | 43 µM (inactive) | > 100 µM (inactive) | > 100 µM (inactive) | > 100 µM (inactive) | > 100 µM (inactive) | > 100 µM (inactive) | > 100 µM (inactive) | > 100 µM (inactive) | > 100 µM (inactive) | > 100 µM (inactive) | > 100 µM (inactive) | > 100 µM (inactive) | > 100 µM (inactive) |
| COc1ccc(C=O)cc1Oc1ccc(C[C@H]2c3c(cc(OC)c4c3Oc3cc5c(cc3O4)CCN(C)C5=O)CCN2C)cc1 | 12.1 µM (inactive) | 11.2 µM (inactive) | 36.2 µM (inactive) | 7.05 µM (inactive) | 12 µM (inactive) | 8.67 µM (inactive) | 33.7 µM (inactive) | 7.29 µM (inactive) | 8.61 µM (inactive) | 8.04 µM (inactive) | 9.73 µM (inactive) | 6.73 µM (inactive) | 7.6 µM (inactive) | 7.14 µM (inactive) | 10.6 µM (inactive) | 8.07 µM (inactive) | 8.43 µM (inactive) | 12.9 µM (inactive) | 7.93 µM (inactive) | 8.65 µM (inactive) |
| CCCCn1c2c(n(CCCC)c1=S)-c1c(n(CCCC)c(=S)n1CCCC)SSSS2 | 5.42 µM (inactive) | 1.22 µM (inactive) | 26.7 µM (inactive) | 2.24 µM (inactive) | 3.86 µM (inactive) | 0.783 µM (active) | 0.18 µM (active) | 4.48 µM (inactive) | 1.38 µM (inactive) | 3.82 µM (inactive) | 2.41 µM (inactive) | 46.1 µM (inactive) | 0.656 µM (active) | 0.301 µM (active) | 9.02 µM (inactive) | 15 µM (inactive) | 0.267 µM (active) | 3.1 µM (inactive) | 0.367 µM (active) | 3.92 µM (inactive) |
| COc1ccc2c(c1)c(=O)c1c(NCCNCCO)ccc3c(=O)n(CCN(C)C)c(=O)n2c31 | < 0.0337 µM (active) | 0.187 µM (active) | < 0.0255 µM (active) | < 0.0186 µM (active) | 0.07 µM (active) | < 0.0265 µM (active) | 0.0769 µM (active) | 0.0933 µM (active) | < 0.0117 µM (active) | 0.132 µM (active) | 0.103 µM (active) | 0.251 µM (active) | 0.132 µM (active) | 0.0766 µM (active) | 0.475 µM (active) | 1.26 µM (inactive) | 0.331 µM (active) | < 0.0198 µM (active) | 0.0895 µM (active) | 0.27 µM (active) |
| C/C(=N\NC(N)=S)c1cccs1.OB(O)c1ccccc1 | > 100 µM (inactive) | > 100 µM (inactive) | > 100 µM (inactive) | > 100 µM (inactive) | > 100 µM (inactive) | > 100 µM (inactive) | 75 µM (inactive) | > 100 µM (inactive) | > 100 µM (inactive) | > 100 µM (inactive) | > 100 µM (inactive) | > 100 µM (inactive) | > 100 µM (inactive) | > 100 µM (inactive) | > 100 µM (inactive) | > 100 µM (inactive) | > 100 µM (inactive) | > 100 µM (inactive) | > 100 µM (inactive) | > 100 µM (inactive) |
| c1ccc2c(c1)c1c3n2-c2cc(on2)C3CCC1 (stereo not given) | > 100 µM (inactive) | > 100 µM (inactive) | > 100 µM (inactive) | > 100 µM (inactive) | > 100 µM (inactive) | > 100 µM (inactive) | > 100 µM (inactive) | > 100 µM (inactive) | > 100 µM (inactive) | > 100 µM (inactive) | > 100 µM (inactive) | > 100 µM (inactive) | > 100 µM (inactive) | > 100 µM (inactive) | > 100 µM (inactive) | > 100 µM (inactive) | > 100 µM (inactive) | > 100 µM (inactive) | > 100 µM (inactive) | > 100 µM (inactive) |
| c1ccc(CCCN2C3CCC2CN(CCOC(c2ccccc2)c2ccccc2)C3)cc1 | 16.4 µM (inactive) | 12.5 µM (inactive) | 13.3 µM (inactive) | 7.05 µM (inactive) | 14.6 µM (inactive) | 8.39 µM (inactive) | 3.24 µM (inactive) | 5.41 µM (inactive) | 10 µM (inactive) | 13.9 µM (inactive) | 12.4 µM (inactive) | 13.7 µM (inactive) | 8.3 µM (inactive) | 12.5 µM (inactive) | 13.3 µM (inactive) | 8.17 µM (inactive) | 13.2 µM (inactive) | 12.1 µM (inactive) | 10.2 µM (inactive) | 4.99 µM (inactive) |
| CC(C)(C)c1cc(C(C)(C)C)c(SC2OC(CO)C(O)C(O)C2O)c(O)c1O (stereo not given) | 13.7 µM (inactive) | 12.1 µM (inactive) | 3.84 µM (inactive) | 13.1 µM (inactive) | 8.02 µM (inactive) | 3.48 µM (inactive) | 17.6 µM (inactive) | 1.55 µM (inactive) | 12.7 µM (inactive) | 3.22 µM (inactive) | 4.94 µM (inactive) | 15.2 µM (inactive) | 17.8 µM (inactive) | 11.6 µM (inactive) | 15.6 µM (inactive) | 10.3 µM (inactive) | 7.66 µM (inactive) | 10.8 µM (inactive) | 12.3 µM (inactive) | 18.3 µM (inactive) |
| CC(=O)Nc1ccc(C(=O)NN2C(=O)CSC2c2ccc([N+](=O)[O-])cc2)cc1 (stereo not given) | > 100 µM (inactive) | > 100 µM (inactive) | > 100 µM (inactive) | > 100 µM (inactive) | > 100 µM (inactive) | > 100 µM (inactive) | > 100 µM (inactive) | > 100 µM (inactive) | > 100 µM (inactive) | > 100 µM (inactive) | > 100 µM (inactive) | > 100 µM (inactive) | 75.9 µM (inactive) | > 100 µM (inactive) | > 100 µM (inactive) | > 100 µM (inactive) | > 100 µM (inactive) | > 100 µM (inactive) | > 100 µM (inactive) | > 100 µM (inactive) |
| COc1cccc2c1C(CO)N1C(C#N)C3CC(C(=O)O)C(C1C2)N3C (stereo not given) | 0.481 µM (active) | 2.11 µM (inactive) | 7.52 µM (inactive) | 1.69 µM (inactive) | 2.62 µM (inactive) | 1.41 µM (inactive) | 0.324 µM (active) | 1.6 µM (inactive) | 1.3 µM (inactive) | 0.238 µM (active) | 0.349 µM (active) | 3.6 µM (inactive) | 0.15 µM (active) | 1.99 µM (inactive) | 1.56 µM (inactive) | 0.367 µM (active) | 1.23 µM (inactive) | 1.64 µM (inactive) | 4.91 µM (inactive) | 4.37 µM (inactive) |
| Oc1ccc(O)c(CNc2ccc(C(O)C(F)(F)F)cc2)c1 (stereo not given) | 14.5 µM (inactive) | 17.8 µM (inactive) | 31.6 µM (inactive) | 16.7 µM (inactive) | 44.9 µM (inactive) | 4.85 µM (inactive) | 18.1 µM (inactive) | 12.2 µM (inactive) | 13 µM (inactive) | 41.2 µM (inactive) | 11.9 µM (inactive) | 44.3 µM (inactive) | 15.6 µM (inactive) | 13.6 µM (inactive) | 31.6 µM (inactive) | 8.43 µM (inactive) | 3.98 µM (inactive) | 18.1 µM (inactive) | 16.3 µM (inactive) | 14.8 µM (inactive) |
| COc1ccc(C2SC(=N)Nc3c2c(C)nn3C(=O)c2ccncc2)cc1 (stereo not given) | > 100 µM (inactive) | > 100 µM (inactive) | > 100 µM (inactive) | > 100 µM (inactive) | > 100 µM (inactive) | > 100 µM (inactive) | 45.5 µM (inactive) | > 100 µM (inactive) | > 100 µM (inactive) | > 100 µM (inactive) | 70.6 µM (inactive) | > 100 µM (inactive) | > 100 µM (inactive) | > 100 µM (inactive) | > 100 µM (inactive) | > 100 µM (inactive) | 40.4 µM (inactive) | > 100 µM (inactive) | 43.3 µM (inactive) | > 100 µM (inactive) |
| COc1ccc2c3c(c(=O)n(C)c2c1OC)C=CC(C)(C)O3 | 43.7 µM (inactive) | 28.8 µM (inactive) | 44.7 µM (inactive) | 29.9 µM (inactive) | 20.7 µM (inactive) | 39.2 µM (inactive) | 25.8 µM (inactive) | 2.78 µM (inactive) | 43.1 µM (inactive) | 23.5 µM (inactive) | 38.3 µM (inactive) | 32.1 µM (inactive) | 22 µM (inactive) | 18 µM (inactive) | 41.9 µM (inactive) | 18 µM (inactive) | 48 µM (inactive) | 12.7 µM (inactive) | 19.1 µM (inactive) | 48.3 µM (inactive) |
